Measured values taken from US9107415B2, “2-(substituted-phenyl)-cyclopentane-1,3-dione compounds, and derivatives thereof” (Syngenta Limited, priority 2011, dated 2015).

Key:
Type in all cases: in vivo
[1] = tested on: Alopecurus myosuroides, blackgrass (ALOMY); experiment: Biological Example 3 glasshouse screen, post-emergence herbicidal activity; conditions: 360 h, 15 DAA, no safener, read-out: ALOMY percentage phytotoxicity; for pest or weed control at 30 g/ha: application rate 30 g/ha; for pest or weed control at 60 g/ha: application rate 60 g/ha
Procedure, shortened: (§1)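 Post-em spray, 12 d after sowing; a.i.:IF50 1:20 in acetone, diluted in water + 0.2% v/v X-77; no cloquintocet-mexyl. Glasshouse 24/18 or 20/16°C d/n, 16 h light, 65% RH, watered twice daily. Visual % phytotox at 15 DAA.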

[2] = tested on: Lolium perenne, perennial ryegrass (LOLPE); experiment: as above; conditions: 360 h, 15 DAA, no safener, read-out: LOLPE percentage phytotoxicity; for pest or weed control at 30 g/ha: application rate 30 g/ha; for pest or weed control at 60 g/ha: application rate 60 g/ha
Procedure, shortened: as §1

[3] = tested on: Spring Barley “Harrington”; experiment: Biological Example 4B post-emergence phytotoxicity on cereal crops; conditions: 14 DAA, technical compound in IF50 + Adigor, mean of two
Description: (§2) Seeds of a variety of test species are sown in standard soil in pots. After cultivation for 14 days under controlled conditions in a glasshouse (at 22/16°C., day/night; 16 hours light; 65% humidity), the plants are sprayed with an aqueous spray solution derived from the formulation of the technical active ingredient dissolved in acetone plus IF50 containing
(§3) 10.56 wt % Emulsogen™EL (castor oil ethoxylate, CAS Registry number 61791-12-6)
(§4) 42.22 wt % N-Methyl pyrrolidone
(§5) 42.22 wt % dipropylene glycol monoethyl ether
(§6) at a 1:20 ratio of (technical active ingredient:IF50). The adjuvant Adigor™(an adjuvant containing inter alia methylated rapeseed oil, e.g. available from Syngenta) is added to form a 0.5% v/v solution. The test plants are then grown on under controlled conditions in the glasshouse (at 22/16°C., day/night; 16 hours light; 65% humidity) and are watered twice daily. After 14 days the test is evaluated (100%=total damage to plant; 0%=no damage to plant).
(§7) Post-emergence herbicidal activity (phytotoxicity) data, on certain grassy monocotyledonous weeds and cereal crops in a glasshouse, are measured 14 days after application of the herbicide (14 DAA), for (a) a post-emergence application rate of 60 g/ha of the test herbicide with or without 50 g/ha of cloquintocet-mexyl safener applied at substantially the same time as the herbicide, and (b) for a post-emergence application rate of 30 g/ha of the test herbicide with 50 g/ha of cloquintocet-mexyl safener applied at substantially the same time as the herbicide. Herbicidal activity (phytotoxicity) is evaluated visually, and an assessed percentage phytotoxicity score is given for each herbicidal application on each plant species (with 100%=total damage to plant; 0%=no damage to plant). Two repetitions are made for each experiment, and the mean herbicidal activity (phytotoxicity) data is reported.

Avena fatua (AVEFA) = experiment: Biological Example 1 glasshouse screen, post-emergence herbicidal activity; conditions: 312 h, application rate 250 g/ha, evaluated after 13 days, read-out: AVEFA percentage phytotoxicity
Procedure, shortened: (§8)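 Pots in a glasshouse (24/16°C day/night, 14 h light, 65% humidity) were sprayed one day after sowing (pre-emergence) or after 8 days (post-emergence), using acetone/water (50:50) with 0.5% Tween 20. Phytotoxicity was scored visually as % damage (0-100) 13 days after application.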

Lolium perenne (LOLPE) = experiment: as above; conditions: 312 h, application rate 250 g/ha, evaluated after 13 days, read-out: LOLPE percentage phytotoxicity
Procedure, shortened: as §8

[4] = tested on: Triticum aestivum, wheat (TRZAW); experiment: Biological Example 3 glasshouse screen, post-emergence, phytotoxicity on wheat; conditions: 360 h, 15 DAA, no safener, read-out: TRZAW percentage phytotoxicity; for pest or weed control at 30 g/ha: application rate 30 g/ha; for pest or weed control at 60 g/ha: application rate 60 g/ha
Procedure, shortened: as §1

Spring Wheat “Teal” = experiment: Biological Example 4B post-emergence phytotoxicity on cereal crops; conditions: 14 DAA, technical compound in IF50 + Adigor, mean of two
Description: as §2, §3, §4, §5, §6
as §7, with “post-emergence application rate of 60 g/ha of the test herbicide with or without 50 g/ha of cloquintocet-mexyl safener applied at substantially” left out

[5] = 30 g/ha, cloquintocet-mexyl 50 g/ha
[6] = 60 g/ha, cloquintocet-mexyl 0 g/ha
[7] = 60 g/ha, cloquintocet-mexyl 50 g/ha

Row | Compound | pest or weed control at 30 g/ha [1] [%] | pest or weed control at 30 g/ha [2] [%] | Spring Barley “Harrington” phytotoxicity (%) [3, 5] [%] | Spring Barley “Harrington” phytotoxicity (%) [3, 6] [%] | Spring Barley “Harrington” phytotoxicity (%) [3, 7] [%] | pest or weed control at 250 g/ha (Avena fatua (AVEFA)) [%] | pest or weed control at 250 g/ha (Lolium perenne (LOLPE)) [%] | pest or weed control at 30 g/ha [4] [%] | Spring Wheat “Teal” phytotoxicity (%) (Spring Wheat “Teal”; [5]) | Spring Wheat “Teal” phytotoxicity (%) (Spring Wheat “Teal”; [6]) | Spring Wheat “Teal” phytotoxicity (%) (Spring Wheat “Teal”; [7]) | pest or weed control at 60 g/ha [1] [%] | pest or weed control at 60 g/ha [2] [%] | pest or weed control at 60 g/ha [4] [%] | pest or weed control at 15 g/ha ([1]; application rate 15 g/ha) [%] | pest or weed control at 15 g/ha ([2]; application rate 15 g/ha) [%] | pest or weed control at 15 g/ha ([4]; application rate 15 g/ha) [%] | Spring Wheat “Teal” phytotoxicity (%) (Spring Wheat “Teal”; 15 g/ha, cloquintocet-mexyl 50 g/ha)
1 | CC#Cc1cc(C)c(C2=C(O)CC(Cc3ccc(C)cn3)C2=O)c(C)c1 (stereo not drawn) [Compound A-8] | 80 | 90 | 18 | 85 | 75 | 100 | 100 | 40 | 0 | 73 | 25 | – | – | – | – | – | – | –
2 | CC#Cc1cc(C)c(C2=C(O)CC(Cc3ccc(F)cn3)C2=O)c(C)c1 (stereo not drawn) [Compound A-11] | 90 | 80 | 8 | 58 | 13 | 90 | 100 | 40 | 8 | 38 | 15 | 100 | 100 | 50 | – | – | – | –
3 | CC#Cc1cc(C)c(C2=C(O)CC(Cc3ccc(C#N)cn3)C2=O)c(C)c1 (stereo not drawn) [Compound A-14] | 70 | 70 | 70 | 95 | 95 | 90 | 100 | 20 | 13 | 83 | 65 | 90 | 80 | 40 | – | – | – | –
4 | CC#Cc1cc(C)c(C2C(=O)CC(Cc3ccn(C)n3)C2=O)c(C)c1 (stereo not drawn) [Compound A-19] | 100 | 80 | 38 | 98 | 94 | 100 | 100 | 70 | 73 | 90 | 83 | – | – | – | 80 | 30 | 20 | 23
